Paper PMC8887546, “Design and Synthesis of Brain Penetrant Glycopeptide Analogues of PACAP With Neuroprotective Potential for Traumatic Brain Injury and Parkinsonism” (Frontiers in drug discovery, 2022)

System: C57BL/6 mice, diffuse TBI
Experiment: Flow cytometry analysis of blood after TBI
Format: in vivo, mouse
Settings: 10 mg/kg i.p. 30 min prior to TBI
Protocol: 30 min prior to TBI or sham injury, mice were randomly assigned to a therapeutic group and received an intraperitoneal injection of 2LS80Mel (10 mg/kg) or sterile saline (0.25 ml). Groups were as follows: TBI-2LS80Mel n = 17; TBI-vehicle n = 17; sham n = 22 (vehicle n = 11, 2LS80Mel n = 11).
For injury induction 24 h post-surgery, mice were re-anesthetized with 5% isoflurane delivered for 3 min. The cap was removed from the injury-hub assembly and the dura was visually inspected through the hub to ensure it was intact with no debris. The hub was then filled with normal saline and attached to an extension tube connected to the male end of the fluid percussion device (Custom Design and Fabrication, Virginia Commonwealth University, Richmond, VA). An injury of moderate severity for our injury model (1.4 atm) was administered by releasing the pendulum onto the fluid-filled cylinder following the return of a toe-pinch response. Sham mice underwent the same procedure except the pendulum was not released. Injured mice were monitored for presence of a forearm fencing response and righting reflex times were recorded as indicators of injury severity ([Hosseini and Lifshitz, 2009]). The righting reflex time is the total time from the initial impact until the mouse spontaneously rights itself from a supine position. The fencing response is a tonic posturing characterized by extension and flexion of opposite arms that has been validated as an overt indicator of injury severity ([Hosseini and Lifshitz, 2009]). The injury hub was removed, and the brain was inspected for uniform herniation and integrity of the dura. The incision was cleaned with saline and closed using sutures. Moderately brain-injured mice had righting reflex recovery times greater than 4 min and a positive fencing response. […] After spontaneously righting, mice were placed in a heated recovery cage and monitored until they were ambulatory (approximately 5–15 min) before being returned to their piezoelectric sleep cage (see below). […]

`CC[C@H](C)[C@H](NC(=O)CNC(=O)[C@H](CC(=O)O)NC(=O)[C@H](CO)NC(=O)[C@@H](N)Cc1c[nH]cn1)C(=O)N[C@@H](Cc1ccccc1)C(=O)N[C@H](C(=O)N[C@@H](CC(=O)O)C(=O)N[C@@H](CO)C(=O)N[C@@H](Cc1ccc(O)cc1)C(=O)N[C@@H](CO)C(=O)N[C@@H](CCCNC(=N)N)C(=O)N[C@@H](Cc1ccc(O)cc1)C(=O)N[C@@H](CCCNC(=N)N)C(=O)N[C@@H](CCCCN)C(=O)N[C@@H](CCC(N)=O)C(=O)N[C@@H](CC(C)C)C(=O)N[C@@H](C)C(=O)N[C@H](C(=O)N[C@@H](CCCCN)C(=O)N[C@@H](CCCCN)C(=O)N[C@@H](Cc1ccc(O)cc1)C(=O)N[C@@H](CC(C)C)C(=O)N[C@@H](C)C(=O)N[C@@H](C)C(=O)N[C@H](C(=O)N[C@@H](CC(C)C)C(=O)N[C@@H](CO[C@@H]1O[C@H](CO[C@H]2O[C@H](CO)[C@H](O)[C@H](O)[C@H]2O)[C@@H](O)[C@H](O)[C@H]1O)C(N)=O)C(C)C)C(C)C)[C@@H](C)O` [Compound 2LS80Mel] was tested, and the “CD11b+CD115+Ly6Chigh monocyte population in blood” value was “increase was not seen”, the “CD11b+Ly6Chigh monocyte population in blood” value was “increase was not seen” and the “Neutrophil populations in blood” value was “no differences”.
